In US20150283127A1, “SAQUINAVIR-NO FOR IMMUNOMODULATION” (ONCONOX APS, priority 2012, published 2015):

Assays:
[1] = system: PLP-induced EAE; assay: PLP-induced EAE in SJL mice; assay type: in vivo
Excerpt: Seven to 8 weeks-old male C57Bl6 mice and 6 to 7 weeks-old female SJL mice (Harlan Laboratories srl, San Pietro al Natisone, Udine, Italy) were used in the experiments. They were kept under standard laboratory conditions (non specific pathogen free) with free access to food (Harlan Global Diet 2018) and water and were allowed to adapt at least one week to their environment before commencing the study.
PLP (139-151) was synthesized by Genemed synthesis (San Francisco Calif.). EAE was induced as described by J. St. Louis et al. (4). The mice were immunized with 75 μg PLP emulsified in CFA with 6 mg/ml Mycobacterium tuberculosis H37RA (Difco, Detroit, Mich., USA) to make a 1:1 emulsion. Each mouse received subcutaneous injections of 200 μl emulsion divided among four sites draining into the axillary and inguinal lymph nodes. Pertussis toxin (Calbiochem, Nottingham, UK) was used as a co-adjuvant and was administered i.p. at the dose of […] on day 0 and 2 post immunization. The mice were observed every day by measuring their body weights and clinical signs of EAE until 30 days after immunization. These clinical grading were carried out by an observer unaware of the treatment: 0=no sign of disease; 0.5=partial tail paralysis; 1=tail paralysis; 1.5=tail paralysis+partial unilateral hindlimb paralysis; 2=tail paralysis+hindlimb weakness or partial hindlimb paralysis; 2.5=tail paralysis+partial hindlimb paralysis (lowered pelvi); 3=tail paralysis+complete hindlimb paralysis; 3.5=tail paralysis+complete hindlimb paralysis+incontinence; 4=tail paralysis+hindlimb paralysis+weakness or partial paralysis of forelimbs; 5=moribund or dead.
Four groups of 7/8 mice were treated under a late prophylactic regime from day 7 to day 30 as follow:
Group 1: Saquinavir 10 mg/Kg (i.p. once daily)
Group 2: Saq-NO 10 mg/Kg (s.c. once daily)
Group 3: Saq-NO 20 mg/Kg (i.p. once daily)
Group 4: DMSO/H2O (vehicle) (i.p. once daily)

[2] = system: spleen cells; settings: ex vivo, cited from earlier work
[3] = system: S6 phosphorylation (S6 kinase activity); assay: S6 phosphorylation in murine CD4+ cells (immunoblot); assay type: cell-based, mouse; settings: anti-CD3 and anti-CD28, 24 hours
Method: Whole-cell lysates were prepared in a solution containing 62.5 mM Tris-HCl (pH 6.8, 2% w/v sodium dodecyl sulfate (SDS), 10% glycerol, 50 mM dithiothreitol (DTT), 0.01% w/v bromophenol blue, 1 mM phenylmethanesulphonyl fluoride or phenylmethylsulphonyl fluoride (PMSF), 1 μg/ml aprotinine, 2 mM EDTA and samples containing 20 μg of proteins (measured by Lowry protein assay) were electrophoresed on a 12% SDS-polyacrylamide gel. The samples were electro-transferred to polyvinylidene difluoride membranes at 5 mA/cm2, using semi-dry blotting system (Fastblot B43, Biorad, Muenchen, Germany). The blots were blocked with 5% w/v nonfat dry milk in PBS 0.1% Tween-20 and probed with specific antibodies to S6 and phosphorylated-S6 (Ser240/244) at 1:500 dilution (both from Cell Signaling Technology, Boston, Mass.), followed by incubation with secondary antibody at 1:10000 dilution (ECL donkey anti-rabbit horseradish peroxidase (HRP)-linked, GE Healthcare, Buckinghamshire, England, UK). […]
In an attempt to determine intracellular signaling that might be responsible for the observed influence of Saq-NO on the cytokines generation, level of S6 phosphorylation as the measure of S6 kinase activity was detected by immunoblot. CD4+ cells were stimulated with anti-CD3 and anti-CD28 in the presence of Saq-NO or Saq for 24 hours and cell lysates were subsequently obtained and analyzed.

[4] = mice subjected to the treatment; cited from earlier work
[5] = system: HIV; settings: cited from earlier work
[6] = system: murine SPC; assay: Viability of murine SPC (MTT mitochondrial activity assay); assay type: cell-based, mouse; settings: minor compared with the influence on cytokines
Excerpt: Experimental animals (C57BL/6 mice, BALB/c mice and Dark Agouti rats) were obtained from the Animal House Facility of the Institute for Biological Research “Sinisa Stanković”, Belgrade, Serbia. Spleen cells (SPC) were isolated from murine spleens and lymph node cells (LNC) were obtained from rat cervical lymph nodes of untreated animals. Draining lymph node cells (DLNC) were obtained from popliteal lymph nodes 8-10 days after immunization of rats with myelin basic protein (guinea pig MBP, kind gift from professor Alexander Fluegel, University of Goettingen, Germany) and complete Freund's adjuvant (CFA, Difco, Detroit, Mich.). The organs were mechanically disrupted, passed through 40-μm nylon mesh filter and the resulting suspension was collected by centrifugation. Red blood cells from single cell suspensions obtained from spleens were lysed using RBC Lysis Buffer (eBioscience, San Diego, Calif.). […] Obtained purity of CD4 population was more than 97% as determined by flow cytometry. […]
In order to assess the viability of SPC, LNC, DLNC and SCC by mitochondrial activity assay we used the mitochondrial-dependent reduction of 3-(4,5-dimethylthiazol-2-yl)-2,5-[…] bromide (MTT) to formazan. […] The absorbances in MTT assay were measured at […], with a correction at 690 nm, using an automated microplate reader (LKB 5060-006, LKB, Vienna, Austria).

[7] = late prophylactic, 10 mg/Kg once daily

Row | SMILES | Cumulative score and duration of the disease compared to vehicle treated mice [1, 7] | IL-1 beta, IL-10 and TNF-alpha production ([2]; in vivo exposure) | IFN-gamma and IL-2 secretion by spleen cells vs control mice ([2]; mice previously treated) | S6 phosphorylation [3] | Clinical course of the disease ([1]; late prophylactic, 10 mg/Kg once daily, day 7 to 30) | Cum score and duration compared to vehicle-treated mice ([1]; late prophylactic, high dose 20 mg/Kg i.p. once daily) | Disease after interruption of the treatment ([1]; observed for further 20 days) | Toxicity in mice [4] | Anti-HIV potency relative to parental drug [5] | SPC viability [6]
1 | CC(C)(C)NC(=O)[C@@H]1C[C@@H]2CCCC[C@@H]2CN1C[C@@H](O)[C@H](Cc1ccccc1)NC(=O)[C@H](CC(N)=O)NC(=O)c1ccc2ccccc2n1 [Saq, (2S)—N-[(2S,3R)-4-[(3S)-3-(tert-butylcarbamoyl)-decahydroisoquinolin-2-iy]-3-hydroxy-1-phenylbutan-2-il]-2-(quinolin-2-ylformamido)butanediamide, reference compound] | lower but not significant | not modified | secreted more | much weaker | – | – | – | – | – | –
2 | CC(C)(C)NC(=O)C1C[C@@H]2CCCC[C@@H]2CN1CC(O[N+](=O)[O-])[C@H](Cc1ccccc1)NC(=O)C(CC(N)=O)NC(=O)c1ccc2ccccc2n1 (stereo partly drawn) [Saq-NO, nitric ester of Saquinavir] | significantly lower | – | – | diminished | ameliorated | lower but not significant | most evidently | no toxicity | retained | statistically significantly inhibited
